Source: patent US20190365776A1, “THERAPEUTIC AGENT FOR OCULAR FUNDUS DISEASE” (KYUSHU UNIVERSITY, NATIONAL UNIVERSITY CORPORATION, priority 2013, published 2019)

How the values were obtained:
[1] = tested on: VEGF-induced neovascularization; details: Non-Patent Documents 2 and 3; cited from earlier work
[2] = tested on: model mice with hyperoxia-induced retinopathy; details: intravitreally administered; Non-Patent Document 6; cited from earlier work
[3] = tested on: mice OIR (Oxygen-Induced Retinopathy) model; test: Mice OIR (oxygen-induced retinopathy) model, flat-mounted retina; format: in vivo, C57BL/6JJcl mice; details: 0.4% solution, ocular instillation 20 μL three times a day, day 12 to day 17 after birth, flat mount
Protocol: The effectiveness of (S)-(−)-1-(4-fluoro-5-isoquinolinesulfonyl)-2-methyl-1,4-homopiperazine (compound 1) in a mice OIR model commonly used as a model of ischemic retinopathy such as diabetic retinopathy was examined in the following manner. Compound 1 solutions: 0.4% solution, 0.8% solution (instillation volume: 20 μL) Fasudil solution: 0.4% solution (instillation volume: 20 μL) Test animals: C57BL/6JJcl mice (sex: male, 8 to 14 mice per group) C57BL/6JJcl mice born on the same day were reared in a 75%-oxygen environment from day 7 after birth, and were then transferred to a normal indoor environment on day 12 after birth to start administration by ocular instillation. Test groups were a saline instillation group (control), a 0.4% compound 1 solution instillation group, a 0.8% compound 1 solution instillation group, and a 0.4% fasudil solution instillation group, and saline, the compound 1 solution, or the fasudil solution was administered by ocular instillation three times a day. On day 17 after birth, ischemic retinal areas (non-perfused areas) and neovascular areas were quantified for evaluation by flat-mounting or fluorescein fundus angiography. More specifically, 1 g/kg of pentobarbital (Nembutal) was administered intraperitoneally for euthanasia under deep anesthesia, and then both eyeballs were excised and fixed with 4% paraformaldehyde (PFA) at 37° C. for 1 hour, and the corneal limbus was circumferentially incised to remove the cornea and iris from the eyeball. Then, after fixation with 4% PFA at 37° C. for 1 hour, the lens, sclera, and choroid were removed, and the eye cup including the retina was isolated. Further, the retina was fixed with 4% PFA at 37° C. for 3 hours, washed with PBS three times (15 min per wash, 37° C.), dehydrated (methanol 50% 100%, 10 min per methanol treatment, 37° C.), washed with PBS three times (15 min per wash, 37° C.), and blocked with Blocking Buffer (1% BSA, 0.5% Triton-X in PBS) for 60 minutes (37° C.). Then, the retina was treated with a primary antibody (0.7% FITC-conjugates Anti-lectin Ab in PBS, 4° C., overnight) and washed with PBS three times (15 min per wash, 37° C.). Then, 4 to 6 cuts were radially made in the eye cup, and the flat-mounted retina was covered with Crystal Mount. Then, the image of the flat-mounted retina was taken with a fluorescence microscope (BZ-9000, KEYENCE Corp, Osaka, Japan), and the proportion of the non-perfused area to the entire retina and the proportion of the neovascular area to the entire retina were calculated by the following formulas in NIH image J software. The thus obtained values were converted to relative values by regarding the obtained values of the saline instillation group (control) as 100%, and statistical analysis was performed by Wilcoxon test. Non-perfused area=area of avascular region/area of entire retina Neovascular area=area of neovascular region/area of entire retina

[4] = tested on: diabetic model rats; details: intravitreally administered; Non-Patent Documents 4 and 5; cited from earlier work

Compound: C[C@@H](N)[C@H]1CC[C@H](C(=O)Nc2ccncc2)CC1 [Y-27632]
- effect on VEGF-induced neovascularization [1]: effect of inhibiting VEGF-induced neovascularization
- effect on retinal neovascularization [2]: effect of suppressing retinal neovascularization

Compound: O=S(=O)(c1cccc2cnccc12)N1CCCNCC1 [fasudil, reference compound]
- relative value of the neovascular area (saline instillation group = 100%) [3]: 102.2%
- relative value of the non-perfused area (saline instillation group = 100%) [3]: 107.7%
- effect on VEGF-induced neovascularization [1]: effect of inhibiting VEGF-induced neovascularization
- effect on endothelial cells in diabetic model rats [4]: effect of protecting endothelial cells
